The supplement of paper PMC10307832

Key:
Assay in all cases: relative viability (nuclei count vs DMSO), 5 days (fraction); higher = more cells survive
BAY61-3606 + Trametinib = compound: COC1=C(C=C(C=C1)C2=CC3=NC=CN3C(=N2)NC4=C(C=CC=N4)C(=O)N)OC [BAY61-3606] + CC(=O)Nc1cccc(-n2c(=O)n(C3CC3)c(=O)c3c(Nc4ccc(I)cc4F)n(C)c(=O)c(C)c32)c1 [Trametinib] (partner 0.02 µM)
Outline: (§1)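 Each reported value is a median over duplicate plates. It expresses relative viability: treated-well nuclei count divided by vehicle-well nuclei count. Lung cancer cell lines in 1536-well plates were dosed by pin tool a day after seeding, alone with one drug or with a fixed anchor-drug dose plus five library-drug doses (not always all listed) in √10 steps, and nuclei were counted after 5 days.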

Doxorubicin = compound: COc1cccc2c1C(=O)c1c(O)c3c(c(O)c1C2=O)C[C@@](O)(C(=O)CO)C[C@@H]3O[C@H]1C[C@H](N)[C@H](O)[C@H](C)O1 [Doxorubicin]
Outline: (§2)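 MetaXpress counted nuclei in 4× images of lung cancer cell lines that had been fixed, permeabilised and Hoechst-stained in one step. Before that, cells in 1536-well plates were kept overnight at 37 °C, pinned with five √10-spaced library-drug doses on vehicle-anchored plates, and cultured 5 days without medium change. Viability takes treated-well nuclei over vehicle-well nuclei and uses the median across plates. Plates were accepted only at control CV below 25% and at least one doubling.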

BAY61-3606 = compound: COC1=C(C=C(C=C1)C2=CC3=NC=CN3C(=N2)NC4=C(C=CC=N4)C(=O)N)OC [BAY61-3606]
Outline: as §2

Doxorubicin + Navitoclax = compound: COc1cccc2c1C(=O)c1c(O)c3c(c(O)c1C2=O)C[C@@](O)(C(=O)CO)C[C@@H]3O[C@H]1C[C@H](N)[C@H](O)[C@H](C)O1 [Doxorubicin] + CC1(C)CCC(c2ccc(Cl)cc2)=C(CN2CCN(c3ccc(C(=O)NS(=O)(=O)c4ccc(N[C@H](CCN5CCOCC5)CSc5ccccc5)c(S(=O)(=O)C(F)(F)F)c4)cc3)CC2)C1 [Navitoclax] (partner 0.5 µM)
Outline: as §1

| Cell Line | relative viability (BAY61-3606 + Trametinib; first compound 0.02 µM) | relative viability (BAY61-3606 + Trametinib; first compound 0.06325 µM) | relative viability (BAY61-3606 + Trametinib; first compound 0.2 µM) | relative viability (BAY61-3606 + Trametinib; first compound 2 µM) | relative viability (Doxorubicin; 0.001 µM) | relative viability (Doxorubicin; 0.003162 µM) | relative viability (Doxorubicin; 0.01 µM) | relative viability (Doxorubicin; 0.03162 µM) | relative viability (Doxorubicin; 0.1 µM) | relative viability (BAY61-3606; 0.02 µM) | relative viability (BAY61-3606; 0.06325 µM) | relative viability (BAY61-3606; 0.2 µM) | relative viability (BAY61-3606; 0.6325 µM) | relative viability (BAY61-3606; 2 µM) | relative viability (BAY61-3606 + Trametinib; first compound 0.6325 µM) | relative viability (Doxorubicin + Navitoclax; first compound 0.003162 µM) | relative viability (Doxorubicin + Navitoclax; first compound 0.01 µM) | relative viability (Doxorubicin + Navitoclax; first compound 0.03162 µM) | relative viability (Doxorubicin + Navitoclax; first compound 0.1 µM) | relative viability (Doxorubicin + Navitoclax; first compound 0.001 µM) |
| --- | --- | --- | --- | --- | --- | --- | --- | --- | --- | --- | --- | --- | --- | --- | --- | --- | --- | --- | --- | --- |
| NCI-H1648 | 0.47 | 0.466 | 0.546 | 0.512 | 0.898 | 1.07 | 0.719 | 0.864 | 0.882 | 0.832 | 0.89 | 1.16 | 0.74 | 0.804 | – | – | – | – | – | – |
| NCI-H1793 | 0.445 | 0.414 | 0.449 | 0.478 | – | 1.18 | 0.863 | 0.731 | 0.901 | 0.964 | 1.02 | 0.786 | 1.08 | 1.03 | 0.437 | 0.448 | 0.393 | 0.478 | 0.547 | – |
| SK-LU-1 | 0.562 | 0.512 | 0.482 | 0.406 | 1 | 1.05 | 0.987 | 0.798 | 0.654 | 1.08 | 1.04 | 1.04 | 1.06 | 0.694 | 0.532 | 0.631 | 0.806 | 0.301 | 0.218 | 0.811 |
| HCC-44 | 1.04 | 1.09 | 1 | 1.2 | 0.998 | 0.992 | 0.941 | 1.03 | 0.894 | 0.947 | 0.989 | 1.03 | 1.03 | 1.05 | 1.07 | 1.15 | 0.969 | 1.01 | 1.03 | 1.01 |
| 201T | 0.728 | 0.712 | 0.771 | 0.735 | 0.867 | 0.985 | 0.987 | 0.978 | 0.942 | 0.996 | 0.959 | 1 | 1.01 | 0.95 | 0.753 | 1.19 | 1.2 | 1.24 | 1.21 | 1.16 |
| HOP-62 | – | 0.416 | 0.414 | 0.336 | 0.937 | 1.04 | 1 | 1.04 | 1.02 | 0.969 | 1 | 0.954 | 0.956 | 0.964 | 0.456 | 0.927 | 0.988 | 0.944 | 1.01 | 1.06 |
| NCI-H838 | 0.54 | 0.496 | 0.547 | 0.362 | 1 | 0.988 | 0.964 | 0.807 | 0.552 | 1.03 | 0.942 | 0.999 | 0.934 | 0.668 | 0.575 | 1.17 | 1.12 | 0.905 | 0.423 | 1.12 |
| NCI-H2085 | 0.666 | 0.45 | 0.511 | 0.42 | 0.971 | 0.996 | 0.994 | 0.926 | 0.95 | 1.08 | 1.03 | 0.995 | 1.08 | 0.934 | 0.59 | 1.24 | 1.09 | 0.882 | 1.01 | 1.28 |
| NCI-H661 | 0.638 | 0.585 | 0.551 | 0.541 | 1.01 | 1.06 | 0.957 | 0.853 | 0.634 | 1.02 | 0.993 | 0.991 | 0.963 | 0.976 | 0.633 | – | – | – | – | – |
| NCI-H23 | 0.437 | 0.347 | 0.348 | 0.372 | – | 1.06 | 0.978 | 0.654 | 0.532 | 1.11 | 1.03 | 0.78 | 0.947 | 0.789 | 0.393 | 0.686 | 0.767 | 0.698 | 0.926 | – |
| A-427 | 0.902 | 0.755 | 0.782 | 0.817 | 0.969 | 1.03 | 0.936 | 0.81 | 0.757 | 1.08 | 1.01 | 0.963 | 1.03 | 0.892 | 0.798 | 0.978 | 0.966 | 0.983 | 1.05 | 1 |
| NCI-H647 | 0.479 | 0.496 | 0.413 | 0.319 | 0.953 | 1.07 | 0.987 | 0.495 | 0.201 | 1.15 | 0.897 | 0.946 | 0.979 | 0.616 | 0.551 | 1.4 | 0.992 | 0.65 | 0.517 | 1.17 |
| NCI-H1734 | 0.708 | 0.667 | 0.636 | 0.568 | 0.923 | 1.11 | 0.876 | 0.669 | 0.608 | 1.04 | 0.979 | 0.746 | 0.935 | 0.602 | 0.671 | 1.02 | 0.847 | 0.696 | 0.84 | 0.788 |
| NCI-H1915 | 0.35 | 0.29 | 0.325 | 0.246 | 0.955 | 1.03 | 0.966 | 1.03 | 1.01 | 0.993 | 0.996 | 0.826 | 1.01 | 0.786 | 0.315 | 0.813 | 0.788 | 0.784 | 0.829 | 0.778 |
